# Experimental data from patent US8952024B2, “Herbicidal pyrimidone derivatives” (E I du Pont de Nemours and Company, priority 2009, dated 2015).
# How the values were obtained:
# Assay type in all cases: in vivo
# [1] = test system: morningglory (Ipomoea spp.); assay: Test A pre-/postemergence plant response
# Method in brief: (§1)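 Seeds planted in loam soil/sand blend; test chemicals in non-phytotoxic solvent mixture with surfactant applied as directed soil spray preemergence and, concurrently, postemergence to plants 2–10 cm tall at one- to two-leaf stage. Greenhouse ~10 days; visual injury vs untreated controls, 0 (no effect) to 100 (complete control).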
# [2] = test system: barnyardgrass (Echinochloa crus-galli); assay: Test A pre-/postemergence plant response
# Method in brief: as §1
# [3] = test system: giant foxtail (Setaria faberii); assay: Test A pre-/postemergence plant response
# Method in brief: as §1
# [4] = test system: velvetleaf (Abutilon theophrasti); assay: Test A pre-/postemergence plant response
# Method in brief: as §1
# [5] = test system: large crabgrass (Digitaria sanguinalis); assay: Test A pre-/postemergence plant response
# Method in brief: as §1
# [6] = test system: wheat (Triticum aestivum); assay: Test A pre-/postemergence plant response
# Method in brief: as §1
# [7] = test system: corn (Zea mays); assay: Test A pre-/postemergence plant response
# Method in brief: as §1
# [8] = test system: pigweed (Amaranthus retroflexus); assay: Test A pre-/postemergence plant response
# Method in brief: as §1
# [9] = test system: barnyardgrass (Echinochloa crus-galli); assay: Test B flooded paddy test; settings: for Plant response rating, Flood, Barnyardgrass: 250 g ai/ha, flooded paddy test, visual rating on 0 to 100 scale (0 no effect, 100 complete control) after 13 to 15 days; for Plant response rating, Barnyardgrass: Flood (flooded paddy test), 13 to 15 days; for Barnyardgrass plant response rating: Flood, 31 g ai/ha, scale 0 to 100 (0 no effect, 100 complete control)
# Method in brief: (§2)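 Ratings are visual, 0–100 (100 = complete control), taken versus untreated controls 13 to 15 days after treatment in the greenhouse. Compound went straight into paddy water held 3 cm above soil, applied to 2-leaf-stage plants of four species.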
# [10] = test system: ducksalad (Heteranthera limosa); assay: Test B flooded paddy test; settings: for Plant response rating, Flood, Ducksalad: 250 g ai/ha, flooded paddy test, visual rating on 0 to 100 scale (0 no effect, 100 complete control) after 13 to 15 days; for Plant response rating, Ducksalad: Flood (flooded paddy test), 13 to 15 days; for Ducksalad plant response rating: Flood, 31 g ai/ha, scale 0 to 100 (0 no effect, 100 complete control)
# Method in brief: as §2
# [11] = test system: umbrella sedge (Cyperus difformis); assay: Test B flooded paddy test; settings: for Plant response rating, Flood, Sedge, Umbrella: 250 g ai/ha, flooded paddy test, visual rating on 0 to 100 scale (0 no effect, 100 complete control) after 13 to 15 days; for Plant response rating, Sedge, Umbrella: Flood (flooded paddy test), 13 to 15 days; for Sedge, Umbrella plant response rating: Flood, 31 g ai/ha, scale 0 to 100 (0 no effect, 100 complete control)
# Method in brief: as §2
# [12] = test system: rice (Oryza sativa); assay: Test B flooded paddy test; settings: for Plant response rating, Flood, Rice: 250 g ai/ha, flooded paddy test, visual rating on 0 to 100 scale (0 no effect, 100 complete control) after 13 to 15 days; for Plant response rating, Rice: Flood (flooded paddy test), 13 to 15 days; for Rice plant response rating: Flood, 31 g ai/ha, scale 0 to 100 (0 no effect, 100 complete control)
# Method in brief: as §2
# [13] = Postemergence, 125 g ai/ha, 0 to 100 scale where 0 is no effect and 100 is complete control
# [14] = Postemergence, 500 g ai/ha, visual injury, 0 to 100 scale (0 no effect, 100 complete control), approx. ten days
# [15] = Preemergence, 125 g ai/ha, 0 to 100 scale, 0 = no effect, 100 = complete control
# [16] = Preemergence, 500 g ai/ha, 0 to 100 scale, 0 = no effect, 100 = complete control
# [17] = 62 g ai/ha, scale of 0 to 100 where 0 is no effect and 100 is complete control
# [18] = 125 g ai/ha, scale 0 to 100, 0 is no effect, 100 is complete control
# [19] = Postemergence, 500 g ai/ha, 0 to 100 scale, 0 = no effect, 100 = complete control, approx. ten days
# [20] = Preemergence, 500 g ai/ha, visual injury, 0 to 100 scale (0 no effect, 100 complete control), approx. ten days
smiles,measurement,setting,value
CCCn1c(-c2ccco2)ncc(C(=O)C2=C(O)C3CCC(C3)C2=O)c1=O (centres unmarked) [Compound 230],"Plant response rating, Morningglory",[1]; [13],70
same,Morningglory plant response rating,[1]; [14],90
same,"Plant response rating, Morningglory",[1]; [15],0
same,"Plant response rating, Morningglory",[1]; [16],20
same,"Plant response rating, Barnyardgrass",[2]; [13],70
same,Barnyardgrass plant response rating,[2]; [14],90
same,"Plant response rating, Barnyardgrass",[2]; [15],10
same,"Plant response rating, Barnyardgrass",[2]; [16],80
same,"Plant response rating, Foxtail, Giant",[3]; [13],30
same,"Foxtail, Giant plant response rating",[3]; [14],50
same,"Plant response rating, Foxtail, Giant",[3]; [15],40
same,"Plant response rating, Foxtail, Giant",[3]; [16],50
same,"Plant response rating, Velvetleaf",[4]; [13],100
same,Velvetleaf plant response rating,[4]; [14],100
same,"Plant response rating, Velvetleaf",[4]; [15],60
same,"Plant response rating, Velvetleaf",[4]; [16],80
same,"Plant response rating, Crabgrass, Large",[5]; [13],80
same,"Crabgrass, Large plant response rating",[5]; [14],90
same,"Plant response rating, Crabgrass, Large",[5]; [15],30
same,"Plant response rating, Crabgrass, Large",[5]; [16],90
same,"Plant response rating, Wheat",[6]; [13],0
same,Wheat plant response rating,[6]; [14],0
same,"Plant response rating, Wheat",[6]; [15],0
same,"Plant response rating, Wheat",[6]; [16],0
same,"Plant response rating, Corn",[7]; [13],0
same,Corn plant response rating,[7]; [14],20
same,"Plant response rating, Corn",[7]; [15],0
same,"Plant response rating, Corn",[7]; [16],0
same,"Plant response rating, Pigweed",[8]; [13],80
same,Pigweed plant response rating,[8]; [14],90
same,"Plant response rating, Pigweed",[8]; [16],80
same,"Plant response rating, Flood, Barnyardgrass",[9],40
same,"Plant response rating, Barnyardgrass",[9]; [17],0
same,"Plant response rating, Barnyardgrass",[9]; [18],20
same,Barnyardgrass plant response rating,[9],0
same,"Plant response rating, Flood, Ducksalad",[10],0
same,"Plant response rating, Ducksalad",[10]; [17],0
same,"Plant response rating, Ducksalad",[10]; [18],0
same,Ducksalad plant response rating,[10],0
same,"Plant response rating, Flood, Sedge, Umbrella",[11],75
same,"Plant response rating, Sedge, Umbrella",[11]; [17],30
same,"Plant response rating, Sedge, Umbrella",[11]; [18],40
same,"Sedge, Umbrella plant response rating",[11],0
same,"Plant response rating, Flood, Rice",[12],45
same,"Plant response rating, Rice",[12]; [17],20
same,"Plant response rating, Rice",[12]; [18],30
same,Rice plant response rating,[12],0
O=C1CCCC(O)=C1C(=O)c1cnc(-c2ccccc2)n(C2CCCCCCC2)c1=O [Compound 215],"Plant response rating, Morningglory",[1]; [13],100
same,Morningglory plant response rating,[1]; [14],100
same,"Plant response rating, Morningglory",[1]; [15],0
same,"Plant response rating, Morningglory",[1]; [16],70
same,"Plant response rating, Barnyardgrass",[2]; [13],90
same,Barnyardgrass plant response rating,[2]; [14],100
same,"Plant response rating, Barnyardgrass",[2]; [15],0
same,"Plant response rating, Barnyardgrass",[2]; [16],20
same,"Plant response rating, Foxtail, Giant",[3]; [13],40
same,"Foxtail, Giant plant response rating",[3]; [14],80
same,"Plant response rating, Foxtail, Giant",[3]; [15],10
same,"Plant response rating, Foxtail, Giant",[3]; [16],30
same,"Plant response rating, Velvetleaf",[4]; [13],100
same,Velvetleaf plant response rating,[4]; [14],100
same,"Plant response rating, Velvetleaf",[4]; [15],0
same,"Plant response rating, Velvetleaf",[4]; [16],70
same,"Plant response rating, Crabgrass, Large",[5]; [13],40
same,"Crabgrass, Large plant response rating",[5]; [14],70
same,"Plant response rating, Crabgrass, Large",[5]; [15],0
same,"Plant response rating, Crabgrass, Large",[5]; [16],60
same,"Plant response rating, Wheat",[6]; [13],0
same,Wheat plant response rating,[6]; [14],0
same,"Plant response rating, Wheat",[6]; [15],0
same,"Plant response rating, Wheat",[6]; [16],0
same,"Plant response rating, Corn",[7]; [13],0
same,Corn plant response rating,[7]; [14],30
same,"Plant response rating, Corn",[7]; [15],0
same,"Plant response rating, Corn",[7]; [16],0
same,"Plant response rating, Pigweed",[8]; [13],90
same,Pigweed plant response rating,[8]; [14],100
same,"Plant response rating, Pigweed",[8]; [15],20
same,"Plant response rating, Pigweed",[8]; [16],90
same,"Plant response rating, Flood, Barnyardgrass",[9],40
same,"Plant response rating, Barnyardgrass",[9]; [17],0
same,"Plant response rating, Barnyardgrass",[9]; [18],30
same,Barnyardgrass plant response rating,[9],0
same,"Plant response rating, Flood, Ducksalad",[10],85
same,"Plant response rating, Ducksalad",[10]; [17],75
same,"Plant response rating, Ducksalad",[10]; [18],85
same,Ducksalad plant response rating,[10],70
same,"Plant response rating, Flood, Sedge, Umbrella",[11],90
same,"Plant response rating, Sedge, Umbrella",[11]; [17],0
same,"Plant response rating, Sedge, Umbrella",[11]; [18],75
same,"Sedge, Umbrella plant response rating",[11],0
same,"Plant response rating, Flood, Rice",[12],15
same,"Plant response rating, Rice",[12]; [17],0
same,"Plant response rating, Rice",[12]; [18],0
same,Rice plant response rating,[12],0
CCCn1c(-c2ccc(Br)cc2)ncc(C(=O)C2=C(O)CCCC2=O)c1=O [Compound 134],"Plant response rating, Morningglory",[1]; [13],0
same,"Plant response rating, Morningglory",[1]; [19],60
same,"Plant response rating, Morningglory",[1]; [20],30
same,"Plant response rating, Barnyardgrass",[2]; [13],10
same,"Plant response rating, Barnyardgrass",[2]; [19],60
same,"Plant response rating, Barnyardgrass",[2]; [15],0
same,"Plant response rating, Barnyardgrass",[2]; [20],10
same,"Plant response rating, Foxtail, Giant",[3]; [13],40
same,"Plant response rating, Foxtail, Giant",[3]; [19],70
same,"Plant response rating, Foxtail, Giant",[3]; [15],0
same,"Plant response rating, Foxtail, Giant",[3]; [20],30
same,"Plant response rating, Velvetleaf",[4]; [13],100
same,"Plant response rating, Velvetleaf",[4]; [19],100
same,"Plant response rating, Velvetleaf",[4]; [15],70
same,"Plant response rating, Velvetleaf",[4]; [20],70
same,"Plant response rating, Crabgrass, Large",[5]; [13],50
same,"Plant response rating, Crabgrass, Large",[5]; [19],80
same,"Plant response rating, Crabgrass, Large",[5]; [15],0
same,"Plant response rating, Crabgrass, Large",[5]; [20],30
same,"Plant response rating, Wheat",[6]; [13],0
same,"Plant response rating, Wheat",[6]; [19],0
same,"Plant response rating, Wheat",[6]; [15],0
same,"Plant response rating, Wheat",[6]; [20],0
same,"Plant response rating, Corn",[7]; [13],0
same,"Plant response rating, Corn",[7]; [19],20
same,"Plant response rating, Corn",[7]; [15],0
same,"Plant response rating, Corn",[7]; [20],0
same,"Plant response rating, Pigweed",[8]; [13],70
same,"Plant response rating, Pigweed",[8]; [19],80
same,"Plant response rating, Pigweed",[8]; [15],0
same,"Plant response rating, Pigweed",[8]; [20],60
same,"Plant response rating, Flood, Barnyardgrass",[9],0
same,"Plant response rating, Barnyardgrass",[9]; [17],0
same,"Plant response rating, Flood, Ducksalad",[10],0
same,"Plant response rating, Ducksalad",[10]; [17],0
same,"Plant response rating, Flood, Sedge, Umbrella",[11],0
same,"Plant response rating, Sedge, Umbrella",[11]; [17],0
same,"Plant response rating, Flood, Rice",[12],0
same,"Plant response rating, Rice",[12]; [17],0
